Results filed as inconclusive are left out. Active and inactive are the calls of the source.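 Rule for the calls: active = every replicate run active, meaning lowered signal with potency within ten times the top valid dose; inconclusive = runs neither all active nor all inactive; inactive = all replicate runs inactive, including opposite-direction effects.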
Columns and labels:
[1] = tested on: S. cerevisiae expressing HsHsp90, growth, BacTiter-Glo 48 h; assay: yeast relying on human Hsp90, growth inhibitors – plate reader, dry powder samples, counter-screen for P. falciparum Hsp90 inhibitor project, dose response (AID 588404)
[2] = as above; conditions: S. cerevisiae expressing HsHsp90, growth, BacTiter-Glo 48 h; at 150 µM (top of the series)

Row | Structure (SMILES) | AC50 [1] | activity change, negative = inhibition [2]
1 | O=S(=O)(NC1CC2CCC1C2)c1ccc(Cl)cc1 (centres undefined) | 7.89 µM | –
2 | O=C1C(Cl)=C(Oc2ccccc2)C(=O)c2ccccc21 | < 2.35 µM | –
3 | O=S(=O)(NC1CCCCCC1)c1ccc(Br)s1 | 6.82 µM | –
4 | O=C(O)/C=C/c1cn(-c2ccccc2)nc1-c1cc2ccccc2o1 | 9.22 µM | –
5 | O=C1C(Cl)=C(NCCc2ccccc2)C(=O)c2ccccc21 | – | 20.9% (inactive)
6 | CCOc1cc(S(=O)(=O)NC2CCCCCC2)ccc1F | 26.6 µM | –
7 | COc1ccc2c(c1)[nH]c1c(C)nccc12 | – | 9.79% (inactive)
8 | CCN(CC)c1ccc(/C=C2/SC(=O)N(C(C)C)C2=O)o1 | 12.3 µM | –
9 | O=S(=O)(/C=C/c1ccccc1)NC1CCCCCCC1 | 19.8 µM | –

— PubChem BioAssay AID588404 (Broad Institute, 2011)
